Literature values as cited in patent US20050101563A1, “Method and compositions for the treatment and prevention of pain and inflammation” (Pharmacia Corporation, priority 2001, published 2005).

Legend:
[1] = tested on: patients with knee osteoarthritis; details: 1500 mg/day, 3 years
Cox-2 = details: enzyme inhibitory compounds of Ligustrum lucidum extracts
rats = details: orally administered; sponge implants in rats
[2] = orally administered; rats

Q: With `CC(=O)N[C@H]1C(O)O[C@H](CO)[C@@H](O)[C@@H]1O` (stereo partly drawn) [N-acetylglucosamine] as the compound, how does the “IL-1-beta-mediated activation of chondrocytes” value (human chondrocytes) read?
A: The value was “prevent IL-1-beta-mediated activation of human chondrocytes”.

Q: With `N[C@H]1C(O)O[C@H](CO)[C@@H](O)[C@@H]1O.O=S(=O)(O)O` (stereo partly drawn) [glucosamine sulfate] as the compound, how does the joint-space loss [1] read?
A: The joint-space loss was “no significant joint-space loss”.

Q: Which “selectivity for the inhibition of Cox-2 versus Cox-1” value (Cox-2) does the source give for `CC1(C)CC[C@]2(C(=O)O)CC[C@]3(C)C(=CC[C@@H]4[C@@]5(C)CC[C@H](O)C(C)(C)[C@@H]5CC[C@]43C)[C@@H]2C1` [oleanic acid] here?
A: Its value is “not substantially more selective for the inhibition of Cox-2 than for Cox-1”.

Q: With `C[C@H]1[C@H](C)CC[C@]2(C(=O)O)CC[C@]3(C)C(=CC[C@@H]4[C@@]5(C)CC[C@H](O)C(C)(C)[C@@H]5CC[C@]43C)[C@H]12` [ursolic acid] as the compound, how does the “selectivity for the inhibition of Cox-2 versus Cox-1” value (Cox-2) read?
A: Its value is “not substantially more selective for the inhibition of Cox-2 than for Cox-1”.

Q: With chondroitin sulfate as the compound, how does the granuloma formation (rats) read?
A: Its granuloma formation is “significantly decrease granuloma formation”.

Q: What about the tissue tropism [2] of the same compound?
A: Its tissue tropism is “tropism for cartilagineous tissues”.
